Our source for the CC50, IC50 and selectivity ratio values is ChEMBL document CHEMBL4184301, “Two new coumarins and a new xanthone from the leaves of Rhizophora mucronata” (Bioorg Med Chem Lett, 2018).

One may read the CC50 as the concentration at which the toxic effect on the cells reaches its halfway point. In general, IC50 refers to the concentration needed to halve the response being measured. A high value points to lower potency.

A short description of data set [1]: Cytotoxicity against mouse NIH/3T3 cells after 48 hrs by CCK8 assay. In kind it is cell-based, NIH3T3. In general terms: Tetrazolium dyes change colour on reduction, which living cells bring about.
The test system of data set [2] is HL-60. Put plainly: Antiproliferative activity against human HL60 cells after 48 hrs by CCK8 assay. The class given is functional, cell-based. Particulars: HL-60, 48 h.
The nature of data set [3]: Selectivity index, ratio of CC50 for mouse […] cells to IC50 for human HL60 cells. In kind it is toxicity. As to conditions: NIH/3T3 cells (printed […]) and HL60 cells, read-out: Ratio CC50/IC50.
Data set [4] has as its system HeLa. Nature of the data set: Antiproliferative activity against human HeLa cells after 48 hrs by CCK8 assay. The class given is functional, cell-based.

Regarding `CC1(C)C=Cc2c(cc3oc4c(O)cccc4c(=O)c3c2O)O1`, the CC50 at 48 h in data set [1] came to 25.3 µM. For the same molecule, the IC50 was 2.7 µM in data set [2] and 26 µM in data set [4]. In addition, the selectivity ratio in data set [3] amounted to 9.4.

`COC(=O)C=C(c1ccccc1)c1c(O)c2c(c3c1OC(C)(C)C=C3)O[C@H](C)[C@@H](C)C2=O` (mixture of isomers): the IC50 in data set [2] was 10.7 µM; in data set [4], 33 µM.

Regarding `O=C(O)c1cccc(O)c1O` [2,3-DIHYDROXYBENZOIC ACID], the IC50 in data set [2] and in data set [4] was greater than 60 µM throughout.

As for `CC(=O)O[C@H]1C(=O)[C@@]2(C)[C@H]([C@H](OC(=O)c3ccccc3)[C@]3(O)C[C@H](OC(=O)[C@H](O)[C@@H](NC(=O)c4ccccc4)c4ccccc4)C(C)=C1C3(C)C)[C@]1(OC(C)=O)CO[C@@H]1C[C@@H]2O` [PACLITAXEL], the IC50 in data set [2] came out at 0.0026 µM; in data set [4] it was 0.023 µM.

Take `O=c1cc(-c2ccc(O)c(-c3c(O)cc(O)c4c(=O)cc(-c5ccc(O)cc5)oc34)c2)oc2cc(O)cc(O)c12` [AMENTOFLAVONE]: the IC50 came out at 51.2 µM in data set [2] and 5.3 µM in data set [4].

In data set [1], `CC1(C)C=Cc2c(cc3oc4c(O)c(O)ccc4c(=O)c3c2O)O1` [JACAREUBIN] registered a CC50 at 48 h of 10.2 µM. The IC50 turned out to be 1 µM in data set [2] and 4.8 µM in data set [4]. In addition, the selectivity ratio in data set [3] came out at 10.2.

For the molecule `C/C=C(\C)C(=O)c1c(O)c(/C(=C/C(=O)O)c2ccccc2)c2c(c1OC)C=CC(C)(C)O2`, half-maximal cytotoxicity in data set [1] (CC50 at 48 h) was put at 41.1 µM. The values for the IC50 in data set [2] and in data set [4] were 2.2 µM and 36.4 µM, respectively. For the same molecule, the selectivity ratio in data set [3] amounted to 19.2.

Regarding `C[C@H]1Oc2c3c(c4c(-c5ccccc5)cc(=O)oc4c2C(=O)[C@@H]1C)OC(C)(C)C=C3`, the IC50 amounted to 35.3 µM in data set [2] and 8.3 µM in data set [4].

Regarding `C/C=C(/C)C(=O)c1c2c(c(OC)c3c(-c4ccccc4)cc(=O)oc13)C=CC(C)(C)O2`, the IC50 in data set [2] turned out to be 18.3 µM; in data set [4] it was 42.8 µM.

Turning to `C=C(C)C(O)Cc1c(O)cc2c(=O)c3cccc(O)c3oc2c1O` (stereo unspecified), the IC50 in data set [2] came to 36.8 µM; in data set [4] it was 14.5 µM.

`CC(C)=CCc1c2c(c3oc(=O)cc(-c4ccccc4)c3c1O)C(=O)[C@H](C)[C@@H](C)O2` [BRASIMARIN C]: the half-maximal inhibitory concentration (IC50) in data set [2] is 10.1 µM; in data set [4], 4.4 µM.

As for `CO[C@@]12[C@H](COC(N)=O)C3=C(C(=O)C(C)=C(N)C3=O)N1C[C@@H]1N[C@@H]12` [MITOMYCIN], the IC50 in data set [2] worked out at 0.19 µM; in data set [4] it was 1.13 µM.

For the molecule `C[C@@H]1C(=O)c2c(c3c(c4c(-c5ccccc5)cc(=O)oc24)OC(C)(C)C=C3)O[C@@H]1C`, the IC50 in data set [2] is greater than 60 µM; in data set [4], 21.6 µM.

As for `C[C@@H]1C(=O)c2c(O)c(C(=CC(=O)O)c3ccccc3)c3c(c2O[C@@H]1C)C=CC(C)(C)O3` (mixture of isomers), the IC50 amounted to 35.6 µM in data set [2] and 21.2 µM in data set [4].

For the molecule `CC(C)=CCc1c(O)cc2oc3c(O)cccc3c(=O)c2c1O`, the results for the IC50 in data set [2] and in data set [4] were 6.3 µM and 37.1 µM, respectively.

As for `O=c1cc(-c2ccc(O)cc2)oc2cc(O)cc(O)c12` [APIGENIN], the IC50 was determined as 22.3 µM in data set [2] and 21.3 µM in data set [4].

As to `C[C@H]1Oc2c3c(c(C(=CC(=O)O)c4ccccc4)c(O)c2C(=O)[C@@H]1C)OC(C)(C)C=C3` (mixture of isomers), the IC50 is 24.5 µM in data set [2] and greater than 60 µM in data set [4].

The molecule `C/C=C(\C)C(=O)c1c(OC)c2c(c3c(-c4ccccc4)cc(=O)oc13)OC1C2C1(C)C` (stereo unspecified) came in with a CC50 at 48 h in data set [1] of 22.3 µM. For the same molecule, the IC50 in data set [2] is 2.6 µM; in data set [4] it was 29.9 µM. Besides, the selectivity ratio in data set [3] came to 8.6.

With `CO[C@H]1c2c(c3c(c4c(-c5ccccc5)cc(=O)oc24)OC(C)(C)C=C3)O[C@H](C)[C@H]1C`, the IC50 is 12.9 µM in data set [2] and 3.8 µM in data set [4].
